Key:
[1] = human absorption data, from Ertl et al.; cited from earlier work
[2] = test system: gastrointestinal motility; assay: Gastrointestinal transit (Evans Blue dye) in opioid induced constipation model; assay type: in vivo, mice; settings: oral vehicle, loperamide 3 mg/kg subcutaneous, 30-minute period; vehicle/vehicle approximately 70%
Method: Gastrointestinal transit is measured in mice treated with the peripherally acting μ-opioid agonist loperamide to assess the ability of selected example compounds to restore gastrointestinal motility in a model of opioid induced constipation. Approximately eight-week old, female, CD1 […] are purchased from Envigo (Livermore, Calif.), are housed 4 per cage and acclimated for at least 48 hours before study initiation. Animals are fed standard laboratory rodent chow Harlan Teklad Global 2018 (Maddison, Wis.). […] 30 minutes later, animals are euthanized by carbon dioxide inhalation, and the length from the pylorus to cecum (whole length of the small intestine) and the length from the pylorus to the Evans Blue dye front are measured and recorded. For an individual animal, the length travelled by the Evans Blue dye front is divided by the length of the whole small intestine, measured from the pylorus to the cecum, and multiplied by 100, to provide the distance of the small intestine travelled by the dye as a percentage. […] The effect of example compounds on GIT motility in the presence of loperamide is calculated as the ability to restore vehicle/vehicle transit distance from the vehicle/loperamide transit, expressed as a percentage.

Structure (SMILES)	% FA [1]	distance of the small intestine travelled by the Evans Blue dye front [2]
O=C(O)c1cc(/N=N/c2ccc(S(=O)(=O)Nc3ccccn3)cc2)ccc1O [sulfasalazine]	12%	–
OC[C@H]1O[C@@H](O[C@@H]2[C@@H](CO)OC(O)(CO)[C@H]2O)[C@H](O)[C@@H](O)[C@H]1O (mixture of isomers) [lactulose]	0.6%	–
O=C(O)P(=O)(O)O [foscarnet]	17%	–
O=C(O)c1cc(/N=N/c2ccc(O)c(C(=O)O)c2)ccc1O [olsalazine]	2.3%	–
CN(C)C(=O)C(CCN1CCC(O)(c2ccc(Cl)cc2)CC1)(c1ccccc1)c1ccccc1 [loperamide]	–	~25%
CC(=O)Nc1ccc(OCC(O)CNC(C)C)cc1 (centres unmarked) [practolol]	95%	–
C=CCc1ccccc1OCC(O)CNC(C)C (centres unmarked) [alprenolol]	96%	–
OC[C@H]1O[C@H](OC[C@H]2O[C@H](O[C@]3(CO)O[C@H](CO)[C@@H](O)[C@@H]3O)[C@H](O)[C@@H](O)[C@@H]2O)[C@H](O)[C@@H](O)[C@H]1O [raffinose]	0.3%	–
CC(C)NCC(O)COc1cccc2[nH]ccc12 (centres unmarked) [pindolol]	92%	–
C=CCOc1ccccc1OCC(O)CNC(C)C (centres unmarked) [oxprenolol]	97%	–
OC[C@@H](O)[C@@H](O)[C@H](O)[C@H](O)CO [mannitol]	26%	–

Source: patent US10376481B2, “Compounds and methods for inhibiting NHE-mediated antiport in the treatment of disorders associated with fluid retention or salt overload and gastrointestinal tract disorders” (ARDELYX, INC, priority 2012, dated 2019)
